Holding throughout (type): in vivo
In one test the test system is Phaedon cochleariae. Nature of the test: Phaedon cochleariae spray test. The settings on record: foliar, 168 h, application rate 100 g/ha, Chinese cabbage leaf discs, after 7 days, read-out: efficacy. As for the experimental part:
Phaedon cochleariae—Spray Test
(§1) Solvent: • 78.0 parts by weight of acetone • 1.5 parts by weight of dimethylformamide
(§2) Emulsifier: alkylaryl polyglycol ether
(§3) To produce a suitable active compound preparation, 1 part by weight of active compound is dissolved using the stated parts by weight of solvent and made up with water containing an emulsifier concentration of 1000 ppm until the desired concentration is attained. To produce further test concentrations, the formulation is diluted with emulsifier-containing water.
Discs of Chinese cabbage leaves (Brassica pekinensis) are sprayed with an active compound formulation of the desired concentration and, after drying, populated with larvae of the mustard beetle (Phaedon cochleariae).
After 7 days, the efficacy in % is determined. 100% means that all the beetle larvae have been killed; 0% means that no beetle larvae have been killed.

For test [1], the system named is Myzus persicae. Nature of the test: Myzus persicae oral test. Conditions: 120 h, application rate 4 ppm, after 5 days, read-out: efficacy. As for the experimental part:
Solvent: 100 parts by weight of acetone
To produce a suitable preparation of active compound, 1 part by weight of active compound is dissolved using the specified parts by weight of solvent and made up with water until the desired concentration is attained.
50 μl of the active compound preparation are transferred into microtitre plates and made up to a final volume of 200 μl with 150 μl of IPL41 insect medium (33%+15% sugar). Subsequently, the plates are sealed with parafilm, which a mixed population of green peach aphids (Myzus persicae) within a second microtitre plate is able to puncture and imbibe the solution through it.
(§4) After 5 days, the efficacy in % is determined. 100% means that all the aphids have been killed; 0% means that no aphids have been killed.

Test [2] relates to Spodoptera frugiperda. Nature of the test: Spodoptera frugiperda spray test. The settings on record: foliar, 168 h, application rate 100 g/ha, maize leaf discs, after 7 days, read-out: efficacy. As for the experimental part: Spodoptera frugiperda—Spray Test
as §1, §2
To produce further test concentrations, the formulation is diluted with emulsifier-containing water.
After 7 days, the efficacy in % is determined. 100% means that all the caterpillars have been killed; 0% means that no caterpillar has been killed.

Test [3] relates to Spodoptera frugiperda. Nature of the test: Spodoptera frugiperda spray test (SPODFR), comparative. Conditions: 168 h, 0.8 g of ai/ha, 7 dat, read-out: % Efficacy. On the procedure: Spodoptera frugiperda—Spray Test (SPODFR)
as §1, §2, §3
Leaf discs of maize (Zea mays) are sprayed with an active compound formulation of the desired concentration and, after drying, populated with caterpillars of the armyworm (Spodoptera frugiperda).
After the desired period of time, the efficacy in % is determined. 100% means that all the caterpillars have been killed; 0% means that no caterpillar has been killed.

The test system of test [4] is Myzus persicae. Nature of the test: Myzus persicae spray test (MYZUPE), comparative. The settings on record: 120 h, 5 dat, read-out: % Efficacy. As for the experimental part:
Myzus persicae—Spray Test (MYZUPE)
as §1, §2, §3
Discs of Chinese cabbage leaves (Brassica pekinensis) infested by all stages of the green peach aphid (Myzus persicae) are sprayed with an active compound preparation of the desired concentration.
After the desired period of time, the efficacy in % is determined. 100% means that all the aphids have been killed; 0% means that no aphids have been killed.

The test system of a further test is Aphis gossypii. Nature of the test: Aphis gossypii spray test (APHIGO S). The settings on record: 144 h, 6 dat, read-out: % Efficacy. On the procedure:
Aphis gossypii—Spray Test (APHIGO S)
(§5) Solvent: 14 parts by weight of dimethylformamide
as §2
To produce a suitable active compound preparation, 1 part by weight of active compound is dissolved using the stated parts by weight of solvent and made up with water containing an emulsifier concentration of 1000 ppm until the desired concentration is attained. To produce further test concentrations, the formulation is diluted with emulsifier-containing water. If the addition of ammonium salts or/and penetrants is required, these are each added in a concentration of 1000 ppm to the formulation solution.
Cotton plants (Gossypium hirsutum) heavily infested by the cotton aphid (Aphis gossypii) are sprayed with an active compound formulation of the desired concentration.
After the desired time, the kill in % is determined. 100% means that all the aphids have been killed; 0% means that no aphids have been killed.

For test [5], the system named is Myzus persicae. Nature of the test: Myzus persicae spray test. The settings on record: foliar, 120 h, application rate 100 g/ha, Chinese cabbage leaf discs, after 5 days, read-out: efficacy. As for the experimental part:
Myzus persicae—Spray Test
Solvent: • 78 parts by weight of acetone • 1.5 parts by weight of dimethylformamide
as §2, §3
Discs of Chinese cabbage leaves (Brassica pekinensis) infested by all stages of the green peach aphid (Myzus persicae) are sprayed with an active compound formulation of the desired concentration.
as §4

For test [6], the system named is Ctenocephalides felis. Nature of the test: Ctenocephalides felis in vitro contact test with adult cat fleas. The settings on record: application rate 5 μg/cm^2 (=500 g/ha); after 48 h; fleas dead or moribund. As for the experimental part:
Ctenocephalides felis—In Vitro Contact Tests with Adult Cat Fleas
(§6) For the coating of the test tubes, 9 mg of active compound are first dissolved in 1 ml of acetone p.a. and then diluted to the desired concentration with acetone p.a. 250 μl of the solution are distributed homogeneously on the inner walls and the base of a 25 ml glass tube by turning and rocking on an orbital shaker (rocking rotation at 30 rpm for 2 h). With 900 ppm of active compound solution and internal surface area 44.7 cm^2, given homogeneous distribution, an area-based dose of 5 μg/cm^2 is achieved.
After the solvent has evaporated off, the tubes are populated with 5-10 adult cat fleas (Ctenocephalides felis), sealed with a perforated plastic lid and incubated in a horizontal position at room temperature and ambient humidity. After 48 h, efficacy is determined. To this end, the tubes are stood upright and the fleas are knocked to the base of the tube. Fleas which remain motionless at the base or move in an uncoordinated manner are considered to be dead or moribund.
100% efficacy means that all the fleas were dead or moribund. 0% efficacy means that no fleas were harmed.

For test [7], the system named is Spodoptera frugiperda. Nature of the test: Spodoptera frugiperda test on maize plants (SPODFR S). Conditions: 6 dai, read-out: % Efficacy. As for the experimental part:
Spodoptera frugiperda Test (SPODFR S)
as §5
(§7) Emulsifier: 2 parts by weight of alkylaryl polyglycol ether
(§8) To produce a suitable active compound formulation, 1 part by weight of active compound is dissolved with the stated parts by weight of solvent and emulsifier and made up to the desired concentration with water. To produce further test concentrations, water is used for dilution. In the event that addition of ammonium salts or/and penetrants (rapeseed oil methyl ester) is required, these are each pipetted in at a concentration of 1000 ppm after the finished formulation solution has been diluted.
Maize plants (Zea mays) are sprayed with an active compound formulation of the desired concentration and, in each case after 5, 12 and 19 days, populated with 5 caterpillars (L2) of the fall armyworm (Spodoptera frugiperda).
(§9) The kill is determined 6 days after the infection. 100% means that all the caterpillars have been killed and 0% means that none of the caterpillars have been killed.

The next test deals with Rhipicephalus sanguineus. Nature of the test: Rhipicephalus sanguineus in vitro contact test with adult brown dog ticks. The settings on record: application rate 5 μg/cm^2; after 48 h; ticks dead or moribund. As for the experimental part:
Rhipicephalus sanguineus—In Vitro Contact Tests with Adult Brown Dog Ticks
as §6
After the solvent has evaporated off, the tubes are populated with 5-10 adult dog ticks (Rhipicephalus sanguineus), sealed with a perforated plastic lid and incubated in a horizontal position in the dark at room temperature and ambient humidity. After 48 h, efficacy is determined. To this end, the ticks are knocked to the base of the tube and incubated on a hotplate at 45-50° C. for not more than 5 min. Ticks which remain motionless on the base or move in such an uncoordinated manner that they are unable to deliberately avoid the heat by climbing upwards are considered to be dead or moribund.
An efficacy of 100% means that all the ticks were dead or moribund. 0% efficacy means that none of the ticks were harmed.

In another test the test system is Plutella xylostella. Nature of the test: Plutella xylostella test (PLUTMA S). The settings on record: 456 h, infection 19 dat, 6 dai, read-out: % Efficacy. As for the experimental part: Plutella xylostella Test (PLUTMA S)
as §5, §7, §8
Cabbage plants (Brassica oleracea var. sabauda) are sprayed with an active compound formulation of the desired concentration and, after 19 days, populated with 10 caterpillars (L2 larvae) of the diamond back moth (Plutella xylostella).
as §9

Test [8] concerns Ctenocephalides felis. Nature of the test: Ctenocephalides felis oral test. Conditions: 48 h, application rate 100 ppm, in citrated cattle blood, after 2 days, read-out: efficacy (kill in %). As for the experimental part: Ctenocephalides felis—Oral Test
(§10) Solvent: Dimethyl sulfoxide
To produce a suitable active compound formulation, 10 mg of active compound are mixed with 0.5 ml of dimethyl sulfoxide. Dilution with citrated cattle blood gives the desired concentration.
About 20 unfed adult cat fleas (Ctenocephalides felis) are placed into a chamber which is closed at the top and bottom with gauze. A metal cylinder whose bottom end is closed with parafilm is placed onto the chamber. The cylinder contains the blood/active compound formulation, which can be imbibed by the fleas through the parafilm membrane.
After 2 days, the kill in % is determined. 100% means that all of the fleas have been killed; 0% means that none of the fleas have been killed.

The test system of the next test is Lucilia cuprina. Nature of the test: Lucilia cuprina test. Conditions: application rate 100 ppm; L1 larvae; after 2 days. On the procedure: as §10
To produce a suitable active compound formulation, 10 mg of active compound are mixed with 0.5 ml of dimethyl sulfoxide, and the concentrate is diluted with water to the desired concentration.
About 20 L1 larvae of the Australian sheep blowfly (Lucilia cuprina) are transferred into a test vessel containing minced horsemeat and the active compound formulation of the desired concentration.
After 2 days, the kill in % is determined. 100% means that all the larvae have been killed; 0% means that no larvae have been killed.

Where two headings read alike, the source gives them in different places.

For `CCS(=O)(=O)c1c(-c2nc3cc(C(F)(F)F)cnc3n2C)ncc2c(C(F)(F)F)cccc12` [Example I-032], the pest or weed control at 100 g/ha in the test with Phaedon cochleariae, with Spodoptera frugiperda [2] and in the test on Myzus persicae [5] was 100% throughout. The pest or weed control at 4 ppm in the test on Myzus persicae [1] came to 100%. Besides, in the test on Spodoptera frugiperda [3], the Emax at 0.8 g/ha worked out at 100%. Further, the Emax at 4 g/ha with Myzus persicae [4] (4 g of ai/ha) was 90%. Besides, the Emax at 20 g/ha with Myzus persicae [4] (20 g of ai/ha) was found to be 100%. The Emax at 4 ppm in the test with Aphis gossypii was determined as 90%. Besides, the efficacy with Ctenocephalides felis [6] and in the test on Rhipicephalus sanguineus was 100% each time. Further, the Emax at 0.16 ppm was 100% in the test on Spodoptera frugiperda [7] (120 h, infection 5 dat) and 70% in the test with Spodoptera frugiperda [7] (288 h, infection 12 dat). For the same compound, the Emax at 0.8 ppm in the test on Spodoptera frugiperda [7] (288 h, infection 12 dat) came to 100%.

For the compound `CCS(=O)(=O)c1c(-c2nc3cc(C(F)(F)F)cnc3n2C)ncc2cc(OCC(F)(F)F)ccc12` [Example I-036], the Emax at 0.16 ppm with Plutella xylostella turned out to be 80%; with Spodoptera frugiperda [7] (120 h, infection 5 dat) it was 90%; in the test with Spodoptera frugiperda [7] (456 h, infection 19 dat), 70%. For the same compound, the pest or weed control at 4 ppm in the test with Myzus persicae [1] was determined as 100%. Moreover, the pest or weed control at 100 g/ha in the test on Spodoptera frugiperda [2] amounted to 100%. In addition, in the test with Spodoptera frugiperda [7] (456 h, infection 19 dat), the Emax at 0.8 ppm was 100%.

For `CCS(=O)(=O)c1ccc2c(S(=O)(=O)CC)c(-c3nc4cc(C(F)(F)F)cnc4n3C)ncc2c1` [Example I-034, 4,7-Bis(ethylsulfonyl)-3-[3-methyl-6-(trifluoromethyl)imidazo[4,5-b]pyridin-2-yl]isoquinoline], the pest or weed control at 100 ppm with Ctenocephalides felis [8] came out at 100%. Also, the “efficacy (kill in %)” value with Lucilia cuprina is 100%. For the same compound, in the test on Myzus persicae [1], the pest or weed control at 4 ppm amounted to 100%. The pest or weed control at 100 g/ha with Spodoptera frugiperda [2] worked out at 83%; in the test with Myzus persicae [5], 90%. In the test on Ctenocephalides felis [6], this compound returned an efficacy of 100%.
